Several values for one entry are separate records, joined by “and”; a condition that tells them apart may be missing. Equal values may be shown once. Toxic doses and inconclusive results are not listed. No stated cut-off is given here; in the data, active means T/C of 150% or more; inactive means T/C below 125%.
Tested on: L1210 leukemia ip in BDF1 mice, survival T/C
Test: NCI In Vivo Anticancer Drug Screen. Data for tumor model L1210 Leukemia (intraperitoneal) in B6D2F1 (BDF1) mice
Settings: endpoint: mean survival time, higher = longer survival
Method in brief: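 Value reflects the ratio of survival in compound-treated mice to survival in vehicle-treated controls, with both groups carrying the same transplanted tumor.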

[1] = dose: 100.0 mg/kg/injection, schedule: Q04DX003 (ip), vehicle: saline
[2] = dose: 100.0 mg/kg/injection, schedule: Q01DX001 (ip), vehicle: carboxymethylcellulose (CMC)
[3] = dose: 100.0 mg/kg/injection, schedule: Q01DX009 (ip), vehicle: Klucel (hydroxypropylcellulose) (HPC)
[4] = dose: 200.0 mg/kg/injection, schedule: Q01DX001 (ip), vehicle: carboxymethylcellulose (CMC)
[5] = dose: 200.0 mg/kg/injection, schedule: Q01DX009 (ip), vehicle: Klucel (hydroxypropylcellulose) (HPC)
[6] = dose: 400.0 mg/kg/injection, schedule: Q01DX001 (ip), vehicle: carboxymethylcellulose (CMC)
[7] = dose: 400.0 mg/kg/injection, schedule: Q01DX009 (ip), vehicle: Klucel (hydroxypropylcellulose) (HPC)
[8] = dose: 100.0 mg/kg/injection, schedule: Q04DX003 (ip), vehicle: saline with Tween-80
[9] = dose: 200.0 mg/kg/injection, schedule: Q04DX003 (ip), vehicle: saline with Tween-80
[10] = dose: 100.0 mg/kg/injection, schedule: Q04DX002 (ip), vehicle: Klucel (hydroxypropylcellulose) (HPC)
[11] = dose: 100.0 mg/kg/injection, schedule: Q04DX003 (ip), vehicle: Klucel (hydroxypropylcellulose) (HPC)
[12] = dose: 200.0 mg/kg/injection, schedule: Q04DX003 (ip), vehicle: Klucel (hydroxypropylcellulose) (HPC)
[13] = dose: 100.0 mg/kg/injection, schedule: Q01DX009 (ip), vehicle: gum acacia
[14] = dose: 200.0 mg/kg/injection, schedule: Q01DX009 (ip), vehicle: gum acacia
[15] = dose: 100.0 mg/kg/injection, schedule: Q04DX003 (ip), vehicle: gum acacia
[16] = dose: 200.0 mg/kg/injection, schedule: Q04DX003 (ip), vehicle: gum acacia
[17] = dose: 400.0 mg/kg/injection, schedule: Q04DX003 (ip), vehicle: gum acacia
[18] = dose: 100.0 mg/kg/injection, schedule: Q01DX001 (ip), vehicle: Klucel (hydroxypropylcellulose) (HPC)
[19] = dose: 200.0 mg/kg/injection, schedule: Q01DX001 (ip), vehicle: Klucel (hydroxypropylcellulose) (HPC)
[20] = dose: 400.0 mg/kg/injection, schedule: Q01DX001 (ip), vehicle: Klucel (hydroxypropylcellulose) (HPC)

Measured: T/C

O=C1OC(=O)C2C3OC(C(Br)C3Br)C12 (centres undefined)
inactive: dose: 16.0 mg/kg/injection, schedule: Q04DX003 (ip), vehicle: saline 100 % of control | dose: 37.5 mg/kg/injection, schedule: Q04DX003 (ip), vehicle: saline 95 % of control | dose: 50.0 mg/kg/injection, schedule: Q04DX003 (ip), vehicle: saline 101 % of control | [1] 100 % of control and 90 % of control

Cc1nc2ccccc2nc1N1CCCC1
inactive: dose: 111.0 mg/kg/injection, schedule: Q01DX Z (ip), vehicle: methylcellulose (MC) 101 % of control | dose: 166.0 mg/kg/injection, schedule: Q01DX Z (ip), vehicle: methylcellulose (MC) 92 % of control | dose: 250.0 mg/kg/injection, schedule: Q01DX Z (ip), vehicle: methylcellulose (MC) 114 % of control

Cc1cc(=O)[nH]c2c(C)cccc12
inactive: [2] 93 % of control | dose: 100.0 mg/kg/injection, schedule: Q01DX001 (ip), vehicle: saline 95 % of control | [3] 104 % of control | [4] 104 % of control | dose: 200.0 mg/kg/injection, schedule: Q01DX001 (ip), vehicle: saline 98 % of control | [5] 108 % of control | [6] 98 % of control | dose: 400.0 mg/kg/injection, schedule: Q01DX001 (ip), vehicle: saline 87 % of control | [7] 105 % of control

O=C(O)c1cccc2cccc(C3SCCS3)c12
inactive: [8] 101 % of control | [9] 104 % of control | dose: 400.0 mg/kg/injection, schedule: Q04DX003 (ip), vehicle: saline with Tween-80 90 % of control

CP(C)(=S)P(C)(C)=S
inactive: dose: 25.0 mg/kg/injection, schedule: Q04DX002 (ip), vehicle: Klucel (hydroxypropylcellulose) (HPC) 98 % of control | dose: 50.0 mg/kg/injection, schedule: Q04DX002 (ip), vehicle: Klucel (hydroxypropylcellulose) (HPC) 94 % of control | [10] 95 % of control and 112 % of control

O=[N+]([O-])c1cc([N+](=O)[O-])c(NN(c2ccccc2)c2cccc3ccccc23)c([N+](=O)[O-])c1
inactive: dose: 50.0 mg/kg/injection, schedule: Q01DX009 (ip), vehicle: Klucel (hydroxypropylcellulose) (HPC) 101 % of control | [3] 101 % of control | [11] 96 % of control | [5] 102 % of control | [12] 94 % of control | [7] 98 % of control | dose: 400.0 mg/kg/injection, schedule: Q04DX003 (ip), vehicle: Klucel (hydroxypropylcellulose) (HPC) 94 % of control

Cc1cc([N+](=O)[O-])cc(C)c1N
inactive: dose: 50.0 mg/kg/injection, schedule: Q01DX001 (ip), vehicle: carboxymethylcellulose (CMC) 100 % of control | [2] 102 % of control | [4] 100 % of control | [6] 110 % of control

O=C1OC(=O)C2C1C13CCCC1=C1CCC34C(=O)OC(=O)C43CC123 (centres undefined)
inactive: dose: 6.25 mg/kg/injection, schedule: Q01DX009 (ip), vehicle: saline 111 % of control | dose: 12.5 mg/kg/injection, schedule: Q01DX001 (ip), vehicle: saline 115 % of control | dose: 12.5 mg/kg/injection, schedule: Q01DX009 (ip), vehicle: saline 109 % of control | dose: 12.5 mg/kg/injection, schedule: Q04DX003 (ip), vehicle: saline 106 % of control | dose: 25.0 mg/kg/injection, schedule: Q01DX001 (ip), vehicle: saline 107 % of control | dose: 25.0 mg/kg/injection, schedule: Q04DX003 (ip), vehicle: saline 104 % of control | dose: 50.0 mg/kg/injection, schedule: Q01DX001 (ip), vehicle: saline 109 % of control

N#CCN(CC#N)CCCN(CC#N)CC#N
inactive: dose: 25.0 mg/kg/injection, schedule: Q01DX001 (ip), vehicle: saline with Tween-80 96 % of control | dose: 50.0 mg/kg/injection, schedule: Q01DX001 (ip), vehicle: saline with Tween-80 102 % of control | dose: 200.0 mg/kg/injection, schedule: Q01DX001 (ip), vehicle: saline with Tween-80 102 % of control and 90 % of control | dose: 400.0 mg/kg/injection, schedule: Q01DX001 (ip), vehicle: saline with Tween-80 93 % of control

O=C(O)Cc1n[nH]c(=O)c2ccccc12
inactive: [10] 93 % of control | dose: 200.0 mg/kg/injection, schedule: Q04DX002 (ip), vehicle: Klucel (hydroxypropylcellulose) (HPC) 99 % of control | dose: 400.0 mg/kg/injection, schedule: Q04DX002 (ip), vehicle: Klucel (hydroxypropylcellulose) (HPC) 102 % of control

O=C(COc1ccc(Cl)cc1C(=O)O)NCc1ccc(Cl)cc1
inactive: [13] 92 % of control | [14] 106 % of control | dose: 400.0 mg/kg/injection, schedule: Q01DX009 (ip), vehicle: gum acacia 92 % of control

COc1cc2c(cc1OC)C(CC1=CCN3CCC4=C(C=CCC4)C3C1)NCC2 (centres undefined)
inactive: dose: 4.0 mg/kg/injection, schedule: Q04DX003 (ip), vehicle: water 106 % of control | dose: 8.0 mg/kg/injection, schedule: Q04DX003 (ip), vehicle: water 101 % of control | dose: 16.0 mg/kg/injection, schedule: Q04DX003 (ip), vehicle: water 102 % of control | dose: 32.0 mg/kg/injection, schedule: Q04DX003 (ip), vehicle: water 101 % of control | dose: 64.0 mg/kg/injection, schedule: Q04DX003 (ip), vehicle: water 112 % of control

CCC(C)(C=O)C(C)=O (centres undefined)
inactive: [1] 98 % of control | dose: 200.0 mg/kg/injection, schedule: Q04DX003 (ip), vehicle: saline 96 % of control | dose: 400.0 mg/kg/injection, schedule: Q04DX003 (ip), vehicle: saline 88 % of control

Cc1ccc(SC(=O)CCl)cc1
inactive: dose: 66.0 mg/kg/injection, schedule: Q01DX009 (ip), vehicle: gum acacia 93 % of control | [13] 90 % of control | [15] 102 % of control | dose: 150.0 mg/kg/injection, schedule: Q01DX009 (ip), vehicle: gum acacia 90 % of control | [14] 97 % of control | [16] 96 % of control | [17] 94 % of control

O=C(c1ccccc1)C1C(c2ccccc2)N1Cc1ccccc1 (centres undefined)
inactive: dose: 50.0 mg/kg/injection, schedule: Q04DX003 (ip), vehicle: Klucel (hydroxypropylcellulose) (HPC) 102 % of control | [18] 87 % of control | [3] 100 % of control | [11] 98 % of control | [19] 88 % of control | [12] 98 % of control | [20] 95 % of control

O=C1c2ccccc2C(=O)N1c1ccc(Br)cc1
inactive: [18] 101 % of control | [19] 104 % of control | [20] 104 % of control

COc1cc(N[Si](C)(C)C)nc(OC)n1
inactive: dose: 50.0 mg/kg/injection, schedule: Q01DX009 (ip), vehicle: saline 100 % of control | dose: 100.0 mg/kg/injection, schedule: Q01DX009 (ip), vehicle: saline 96 % of control | dose: 200.0 mg/kg/injection, schedule: Q01DX009 (ip), vehicle: saline 92 % of control

CCOc1cccc(CCC(=O)O)c1
inactive: [15] 105 % of control | [16] 96 % of control | [17] 93 % of control

CN(C)CCc1ccc2cc3ccc(CCN(C)C)cc3nc2c1
inactive: dose: 6.25 mg/kg/injection, schedule: Q04DX002 (ip), vehicle: saline with Tween-80 102 % of control | dose: 12.5 mg/kg/injection, schedule: Q04DX002 (ip), vehicle: saline with Tween-80 105 % of control | dose: 25.0 mg/kg/injection, schedule: Q04DX002 (ip), vehicle: saline with Tween-80 105 % of control

COCCCNc1ccc(S(=O)(=O)c2ccc(N)cc2)cc1
inactive: dose: 100.0 mg/kg/injection, schedule: Q01DX009 (ip), vehicle: saline with Tween-80 103 % of control | dose: 200.0 mg/kg/injection, schedule: Q01DX009 (ip), vehicle: saline with Tween-80 95 % of control | dose: 400.0 mg/kg/injection, schedule: Q01DX009 (ip), vehicle: saline with Tween-80 97 % of control

CCCCN(CCO)C(C#CC(C)(C)O)C(C)C (centres undefined)
inactive: [8] 95 % of control | [9] 101 % of control

Source: PubChem BioAssay AID248 (DTP/NCI, 2004)
